In patent US20210113563A1, “4-(4-CYANO-2-THIOARYL)DIHYDROPYRIMIDINONES FOR TREATING CHRONIC WOUNDS” (pH Pharma Co., Ltd., priority 2015, published 2021):

What was measured:
[1] = Exposure in plasma and skin of diabetic mouse (db/db); type: in vivo; conditions: for Total concentration in skin: day 8; for Total concentration in plasma, geo mean: day 8, 20 h after last treatment
Procedure: Upon scarification on day 8, 20 h after the last treatment, arterial blood samples were collected into EDTA citrate serum sample tubes for LC/MSMS based quantification of compound exposure.

[2] = tested on: collagen type I and collagen type III in ulcer tissue; experiment: Collagen type I and III in chronic skin lesions of adriamycin-treated rats, Sirius red staining; type: in vivo, rat; conditions: for Collagen type I / Collagen type III: adriamycin-treated rats, 10 mg/kg BW o.d.
Source text: (§1) On day 2, 4, 7, 9, 11, 14, 16, 18, 21, 23, 25 and 28 • inhalation anesthesia: isoflurane, O2, N2O mixture • size measurement of the depot and photos Day 28 section • inhalation anesthesia: isoflurane, O2, N2O mixture under anesthesia and then dislocation of the cervical spine • size measurement of the depot and the incision wound and photos • Former depots were harvested by punch biopsies • Wound 1/custodian of any animal->in liquid N2 for peroxidase and elastase determination • Wound 2/custodian of any animal->in liquid N2 for Hydroxyproline determination • Wound 3/custodian of any animal->in formalin fixed for histological studies • Samples were stored for further procedures at −80° C.
After sufficient time in formalin (24-72 h), the samples were trimmed to an appropriate size and transferred to histology-cassettes. The histo-cassettes are watered 2 h under running tap water at room temperature. The drainage and waxing was done using a Leica ASP200, the samples were embedded in paraffin, sectioned by microtome and mounted on slides. The paraffin sections were stained depending on the question (Ladewig or Sirius Red)
(§2) To assess the content of collagen type I (mature form) and collagen type III (newly formed) in ulcer tissue, Sirius red staining was performed according to standard protocols.

[3] = tested on: collagen (hydroxyproline); experiment: Hydroxyproline (HYP) assay in skin lesions of adriamycin-treated rats; type: in vivo, rat; conditions: 10 mg/kg BW o.d. p.o.
Source text: as §1

collagen in ulcer tissue = experiment: Collagen deposition in chronic skin lesions of adriamycin-treated rats, Ladewig staining; type: in vivo, rat; conditions: 10 mg/kg BW o.d. p.o., normal skin = 0, no blue staining = −10
Procedure: Vehicle: • DEPO—DMSO, Ethanol, Peanut Oil 5/3/92 (V/V/V) o.d., p.o., 5 ml/kg BW
Day 0: • Animal randomization, marking, inhalation anesthesia: isoflurane, O2, N2O mixture, shaving of lower back, the animals remain on warming pads in order to avoid cooling down during the adriamycin injection, pain prevention with Temgesic s.c.
Depot set: 3 intradermal injections of 0.15 ml adriamycin (2 mg/ml) per animal in front and rear back, size measurement of the depot via caliper.
as §1
Paraffin-embedded skin samples: the skin piece is placed with the downside on a piece of cork and 4 with needles and transferred into formalin (3.7% in PBS). […]

[4] = tested on: collagen type I and collagen type III in ulcer tissue; experiment: Collagen type I and III in lesions of pressure-applied mouse skin, Sirius red staining; type: in vivo; conditions: for Collagen type I / Collagen type III: pressure-applied mouse skin, day 3 to 15, Sirius red
Source text: OBJECTIVE: Pressure ulcers (decubitus ulcers) represents a large subgroup of chronic wounds. They mainly affect aged or neurologically immobilized patients. Continuous pressure at discrete skin areas leads to long-lasting hard-to-heal ulcer wounds that are also characterized by neutrophil infiltration. The presented experiment was set up to mimic this condition by applying magnet-induced pressure onto mouse skin folds. Since the area of emerging wounds is variable in form and size, its usability as a readout parameter is technically limited.
METHODS: Magnet placement leads to wounds with dermal neutrophil infiltration and delayed wound healing. Three ischemia-reperfusion (IR) cycles (12 hours on, 12 hours off) were applied in each animal to initiate decubitus ulcer formation.
On day 0 (start of experiment), the mice were weighed and put in anesthesia using an isoflurane/O2/N2O mixture. Back and flank skin was shaven. Skin was moistened with tap water and depilated using Pilca cream. Skin was lifted at the back midline and one magnet was placed on each side of the skin fold so that they were exactly opposite to each other. The magnets were left in place for 12 hours, then taken off for 12 hours. This cycle was repeated three times in total.
After sacrificing (day 15) wounds were excised using a 10 mm punch scalpel.
as §2

[5] = tested on: wounds of diabetic mouse (db/db); experiment: Visual wound size reduction in diabetic mouse (db/db); type: in vivo
Procedure: The wounding was conducted in the following manner: • 1) db/db mice were anaesthetized with Isoflurane/O2/N2O (2.5-3.5%/800 ml/min/500 ml/min), and placed on a heating pad upon induction after application of eye ointment • 2) mice were shaven and Pilca was applied for 3-5 minutes to remove the fur and fine hairs 3) two dorsal full thickness wounds were placed with a 8 mm punch biopsie tool after wiping the skin with ethanol and wound size was measured immediately • 4) mice were treated with Temgesic and kept on warming pad until recovery from anaesthesia
Wound Size Measurement: Wound size was measured with a sliding caliper. […] Assuming an elliptic shape, wound area was calculated with:
Wound size reduction on day i was calculated from the initial area on day 0 post wounding: […]

CC1=C(C#N)[C@@H](c2ccc(C#N)cc2S(C)(=O)=O)N(C)C(=O)N1c1cccc(C(F)(F)F)c1 [Example 5, (4 S)-4-[4-Cyano-2-(methylsulfonyl)phenyl]-3,6-dimethyl-2-oxo-1-[3-(trifluoromethyl)phenyl]-1,2,3,4-tetrahydropyrimidine-5-carbonitrile]
Total concentration in skin ([1]; 0.03 mg/kg BW o.d. p.o.): 0.01 µM | Total concentration in plasma, geo mean ([1]; 0.03 mg/kg BW o.d. p.o.): 0.0029 µM | Total concentration in skin ([1]; 0.1 mg/kg BW o.d. p.o.): 0.03 µM | Total concentration in plasma, geo mean ([1]; 0.1 mg/kg BW o.d. p.o.): 0.011 µM | Total concentration in skin ([1]; 0.3 mg/kg BW o.d. p.o.): 0.06 µM | Total concentration in plasma, geo mean ([1]; 0.3 mg/kg BW o.d. p.o.): 0.027 µM | Total concentration in skin ([1]; 1.0 mg/kg BW o.d. p.o.): 0.16 µM | Total concentration in plasma, geo mean ([1]; 1.0 mg/kg BW o.d. p.o.): 0.067 µM | Total concentration in skin ([1]; 3.0 mg/kg BW o.d. p.o.): 0.30 ± 0.06 µM | Total concentration in plasma, geo mean ([1]; 3.0 mg/kg BW o.d. p.o.): 0.13 µM | Total concentration in skin ([1]; 10.0 mg/kg BW o.d. p.o.): 0.54 µM | Total concentration in plasma, geo mean ([1]; 10.0 mg/kg BW o.d. p.o.): 0.17 µM | Collagen type I ([2]; d 14-28, Sirius red): 9.7 | Collagen type III ([2]; d 14-28, Sirius red): 46.69 | Collagen type I ([2]; d 21-37, Sirius red): 8.8 | Collagen type III ([2]; d 21-37, Sirius red): 72.23 | Collagen type III in Adriamycin-induced lesions (in words) ([2]; rats, after two weeks of treatment): strong increase of collagen type III | Hydroxyproline [3]: 5169 (n = 10) | Ladewig score (collagen in ulcer tissue): −1.38 (n = 8) | Collagen type III in pressure-induced lesions (in words) ([4]; mice, after 12 days of treatment): significant increase of collagen type III | Collagen type I ([4]; 1 mg/kg BW o.d.): 1.1 | Collagen type III ([4]; 1 mg/kg BW o.d.): 30.2 | Collagen type I ([4]; 10 mg/kg BW o.d.): 0.7 | Collagen type III ([4]; 10 mg/kg BW o.d.): 49.8 | Visual wound size ([5]; 0.03 mg/kg BW o.d. p.o.): 98.5 % initial area at day 8 | Visual wound size ([5]; 0.1 mg/kg BW o.d. p.o.): 86.07 % initial area at day 8 | Visual wound size ([5]; 0.3 mg/kg BW o.d. p.o.): 72 % initial area at day 8 | Visual wound size ([5]; 1.0 mg/kg BW o.d. p.o.): 71.16 % initial area at day 8 | Visual wound size ([5]; 3.0 mg/kg BW o.d. p.o.): 68.1 % initial area at day 8 | Visual wound size ([5]; 10.0 mg/kg BW o.d. p.o.): 54.85 % initial area at day 8 | EC50 ([5]; in vivo, read-out: Potency (EC50) to improve wound size reduction): 4.5 nM
